What is called MIC is the smallest concentration in the dilution series that meets the test's criterion for growth inhibition. A lower MIC goes with inhibition by little substance.

The source of these data is publication PMC7661526, “Antibiofilm effects of N,O-acetals derived from 2-amino-1,4-naphthoquinone are associated with downregulation of important global virulence regulators in methicillin-resistant Staphylococcus aureus” (Scientific Reports, 2020).

Experiment [1] concerns mecA. The experiment in a line: Real-time RT-qPCR of biofilm-associated genes. Format: cell-based, Staphylococcus aureus. A general note: In qPCR the cycle at which signal appears reflects the starting amount.
Experiment [2] relates to fnbA. The experiment in a line: Real-time RT-qPCR of biofilm-associated genes. Format: cell-based, Staphylococcus aureus.
Experiment [3] relates to sarA. The experiment in a line: Real-time RT-qPCR of global regulators. It counts as cell-based, Staphylococcus aureus.
Experiment [4] concerns MRSA ST5-SCCmecII (USA100). The experiment in a line: Disk diffusion test. It counts as cell-based, Staphylococcus aureus. Background: A growth-free zone around the sample is the usual read-out of agar diffusion tests.
In experiment [5] the test system is MRSA strain BMB9393 biofilm. Description: Biofilm development on polystyrene, crystal violet. It counts as cell-based, Staphylococcus aureus. As to conditions: 1/4MIC (7b 32 µg/mL, 7c 16 µg/mL); strain BMB9393, 24 h, crystal violet. As for the experimental part:
Biofilms were formed on polystyrene surfaces using the BEC representative, strain BMB9393. […] The same volume of the bacterial culture in TSB-Glu (37 °C/18 h; at 250 rpm) diluted 1/100 in the same broth was added to the wells. After incubation (37 °C/24 h), supernatants were gently removed, rinsed with distilled water, and treated with crystal violet solution as described. […] Eight independent tests with three replicates each were performed. Controls were inoculated with the same bacterial inoculum but using only TSB-Glu with 2% (v/v) DMSO, final concentration.

Experiment [6] deals with sigB. Description: Real-time RT-qPCR of global regulators. Format: cell-based, Staphylococcus aureus.
In experiment [7] the test system is MRSA ST5-SCCmecIV (USA800). The experiment in a line: Disk diffusion test. Format: cell-based, Staphylococcus aureus.
In experiment [8] the test system is spa. The experiment in a line: Real-time RT-qPCR of biofilm-associated genes. It counts as cell-based, Staphylococcus aureus.
Experiment [9] concerns MRSA strain BMB9393 biofilm. Description: Confocal laser scanning microscopy (CLSM) of biofilm. It counts as cell-based, Staphylococcus aureus. As to conditions: 1/4MIC (7b 32 µg/mL, 7c 16 µg/mL); SYTO 9; compared with untreated biofilms. As to the method: For CLSM experiments, after 24 h of incubation, the supernatant containing planktonic cells was gently removed, and biofilm treated with 25 nM SYTO 9 DNA-intercalating stain (Invitrogen; Carlsbad, CA, EUA), as previously described. Before visualization, SYTO 9 solution was removed and the material visualized using a confocal laser scanning microscope (Model LSM510 Carl Zeiss Meditec; Jena, Germany). The microscope was configured with the argon laser (458 nm/477 nm/488 nm/514 nm). The images were randomly captured with the […]. Controls were performed using 2% (v/v) DMSO only (final concentration). Three independent experiments were performed in quadruplicate.

The subject of experiment [10] is hla.
In experiment [11] the test system is MRSA (ST1-SCCmecIV) (USA400). Description: Disk diffusion test. It counts as cell-based, Staphylococcus aureus.
Experiment [12] has as its system MRSA strain BMB9393. Description: Autolytic system: extracellular DNA (eDNA) in supernatant. It counts as cell-based, Staphylococcus aureus. As to conditions: 1/4MIC, 7b stated relative to 7c.
Experiment [13] concerns MRSA ST239-SCCmecIII (BMB9393). The experiment in a line: Disk diffusion test. Format: cell-based, Staphylococcus aureus.
The subject of experiment [14] is psmα3. Description: Real-time RT-qPCR of biofilm-associated genes. Format: cell-based, Staphylococcus aureus.
For experiment [15], the system named is MRSA ST8-SCCmecIV (USA300). The experiment in a line: Disk diffusion test. It counts as cell-based, Staphylococcus aureus.
For experiment [16], the system named is MRSA Pediatric-USA800 (USA800-0179). Description: MIC, broth microdilution. Format: cell-based, Staphylococcus aureus. As for the experimental part:
(§1) For biofilm production, tryptic soy broth (TSB; BD, Franklin Lakes, NJ, USA) was supplemented with 1% (w/v) glucose (TSB-Glu). Tryptic soy agar (TSA; BD) was used for bacterial growth. The Mueller-Hinton broth (MHB; BD) and Mueller-Hinton agar (MHA; BD) was used for susceptibility tests. All strains were maintained in 10% (v/v) glycerol stocks and stored at − 80 °C.
(§2) The derivatives were also analyzed quantitatively using microdilution assays in 96-well inert polystyrene microtiter plates (Nuclon; Nalge Nunc International, Rochester, NY, USA) to determine the minimal inhibitory concentration (MIC)[14]. Biological control, as well as growth conditions, were performed following CLSI recommendation[15],[16]. […] Controls were also performed using 2% (v/v) DMSO only.

The subject of experiment [17] is MRSA USA400 (USA400-0051). Description: MIC, broth microdilution. Format: cell-based, Staphylococcus aureus. As for the experimental part: as §1, §2
On the technique in general: In broth dilution the organism is exposed to a series of concentrations in liquid medium.

The subject of experiment [18] is MRSA OSPC-USA1100 (07-040). Description: MIC, broth microdilution. It counts as cell-based, Staphylococcus aureus. As for the experimental part:
as §1, §2

The subject of experiment [19] is MRSA NY/Japan-USA100 (CR15-071). The experiment in a line: MIC, broth microdilution. Format: cell-based, Staphylococcus aureus. As to the method:
as §1, §2

Experiment [20] deals with MRSA USA300 (USA300-0114). The experiment in a line: MIC, broth microdilution. Format: cell-based, Staphylococcus aureus. As for the experimental part:
as §1, §2

For experiment [21], the system named is MRSA ST30-SCCmecIV (USA1100). The experiment in a line: Disk diffusion test. It counts as cell-based, Staphylococcus aureus.
Experiment [22] relates to rnaIII. The experiment in a line: Real-time RT-qPCR of global regulators. It counts as cell-based, Staphylococcus aureus.

Converted amounts (≈) assume the structure as drawn. “And” between values parts separate entries of the source, which are not always exact repeats. Equal entries are not always repeated.

As for `CCOCNC1=CC(=O)c2ccccc2C1=O` [7b, 2-(ethoxymethyl)-amino-1,4-naphthoquinone], the mecA expression entry in [1] is reported as “not significantly affected”. Besides, in [2], the “Reduction of fnbA expression” value was 89.3% ± 1.5%. Moreover, the “Reduction of sarA gene expression” value in [3] is recorded as 65.5 ± 6.0%. In addition, the Inhibition zone is listed as 13±2.0 mm in experiment [4]; 13±0.5 mm in [7]; 13±1.0 mm in experiment [11]; 10±1.0 mm in experiment [13]; 12±2.0 mm in [15]; 13±1.0 mm in experiment [21]. In addition, in [5], the “Reduction of accumulated biofilm matrix” value is 87.4% ± 1.9% and 88%. In addition, in [6], the “Increase of sigB transcripts” value is listed as “did not affect”. Moreover, the “Reduction of spa expression” value in experiment [8] was 95.4 ± 0.9%. Besides, in [9], the “Biofilm accumulation by CLSM” value is “decrease biofilm accumulation massively”. Besides, in experiment [10], the “Reduction of hla expression” value was 90.0 ± 0.6%. Besides, the “Amount of eDNA in bacterial supernatant (cell lysis)” value in [12] is reported as “even higher (about two-fold)”. For the same molecule, the “Reduction of psmα3 expression” value in [14] came out at 97.75 ± 0.6%. The MIC in experiment [16] (Staphylococcus aureus) came out at 256 µg/mL (≈ 1110 µM); in experiment [17] (Staphylococcus aureus), 128 µg/mL (≈ 554 µM); in experiment [18] (Staphylococcus aureus, MRSA) it was 256 µg/mL (≈ 1110 µM); in [19] (Staphylococcus aureus) it was 128 µg/mL (≈ 554 µM); in [20] (Staphylococcus aureus) it was 64 µg/mL (≈ 277 µM). Besides, the “Reduction of RNAIII transcripts” value in [22] is given as 88.0 ± 1.1%.

Turning to `C#CCOCNC1=CC(=O)c2ccccc2C1=O` [7c, 2-(propynyloxymethyl)-amino-1,4-naphthoquinone], the mecA expression result in experiment [1] is listed as “not significantly affected”. Moreover, in experiment [2], the “Reduction of fnbA expression” value is 24.64% ± 3.5%. The “Reduction of sarA gene expression” value in [3] was “no important effect”. Besides, the Inhibition zone amounted to 12±1.5 mm in experiment [4]; 13±1.0 mm in [7]; 11±0.8 mm in experiment [11]; 13±1.0 mm in [13]; 13±1.3 mm in experiment [15]; 15±0.8 mm in experiment [21]. In addition, in [5], the “Reduction of accumulated biofilm matrix” value was 75.6% ± 3.7% and 75%. Moreover, the “Increase of sigB transcripts” value in [6] is listed as 57.22 ± 5.2%. Moreover, the “Reduction of spa expression” value in experiment [8] was 74.82 ± 4.9%. In [9], the “Biofilm accumulation by CLSM” value was “decrease biofilm accumulation massively”. In addition, in experiment [10], the “Reduction of hla expression” value is 86.5 ± 1.0%. The “Amount of eDNA in bacterial supernatant (cell lysis)” value in [12] is on record as “increased”. The “Reduction of psmα3 expression” value in experiment [14] was determined as 87.73 ± 4.3%. For the same molecule, the MIC was determined as 64 µg/mL (≈ 265 µM) in [16] (broth microdilution, Pediatric-USA800 (USA800-0179)); 64 µg/mL (≈ 265 µM) in experiment [17] (broth microdilution, USA400 (USA400-0051)); 128 µg/mL (≈ 531 µM) in [18] (broth microdilution, OSPC-USA1100 (07-040)); 128 µg/mL (≈ 531 µM) in [19] (broth microdilution, NY/Japan-USA100 (CR15-071)); 64 µg/mL (≈ 265 µM) in [20] (broth microdilution, USA300 (USA300-0114)). For the same molecule, the “Reduction of RNAIII transcripts” value in experiment [22] was 70.6 ± 2.2%.
